Reference: PubChem BioAssay (NCI)
Where “and” joins values, the source holds several entries; their conditions need not be identical. Equal values may be shown once.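 Grown in 96-well plates, cells were treated for 48 hours with each compound at five concentrations. Insufficient inhibition: endpoint recorded as highest concentration tested. The concentration for 50% growth inhibition is given as GI50. TGI: concentration producing complete growth inhibition.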

How the values were obtained:
Assay in all cases: NCI tumour cell line growth inhibition, 48 h
[1] = system: DU-145 prostate
[2] = system: HCC-2998 colon
[3] = system: HOP-92 NSCLC
[4] = system: IGROV1 ovarian
[5] = system: K-562 leukemia
[6] = system: KM12 colon
[7] = system: LOX IMVI melanoma
[8] = system: NCI-H23 lung
[9] = system: NCI/ADR-RES ovarian
[10] = system: SK-OV-3 ovarian

SMILES | GI50 [1] | TGI [1] | GI50 [2] | TGI [2] | GI50 [3] | TGI [3] | GI50 [4] | TGI [4] | GI50 [5] | TGI [5] | GI50 [6] | TGI [6] | GI50 [7] | TGI [7] | GI50 [8] | TGI [8] | GI50 [9] | TGI [9] | GI50 [10] | TGI [10]
COc1cc(C#N)cc(OC)c1OCCOCCOc1c(OC)cc(C#N)cc1OC | > 100 µM | > 100 µM | > 100 µM | > 100 µM | 10.3 µM | 78.4 µM | 89.2 µM | > 100 µM | 11.7 µM | 37.1 µM | 51.7 µM | > 100 µM | > 100 µM | > 100 µM | > 100 µM | > 100 µM | 24.8 µM | > 100 µM | > 100 µM | > 100 µM
CNNCc1ccc(C(=O)NC(C)C)cc1 |  | > 500 µM | > 500 µM | > 500 µM | 459 µM | 391 µM and > 500 µM | > 500 µM | > 500 µM | > 500 µM | > 500 µM |  | > 500 µM |  | > 500 µM |  | > 500 µM |  | > 500 µM |  | > 500 µM
O=C1/C(=C\C(Cl)=C/c2ccc([N+](=O)[O-])cc2)SC(=S)N1CCc1ccc(O)cc1 | 0.471 µM | 1.72 µM | 0.392 µM | 1.42 µM | 1.6 µM | 3.29 µM | 0.512 µM | 1.68 µM | 0.285 µM | > 100 µM | 0.312 µM | 1.05 µM | 0.187 µM | 0.387 µM | 0.632 µM | 2.17 µM | 0.342 µM | 1.78 µM | 2.59 µM | 6.42 µM
Cc1c2c(nn1C(=O)c1nn(-c3ccc(Cl)cc3)cc1O)-c1ccccc1CC2 | 0.0497 µM | > 100 µM | 0.377 µM | > 100 µM | 0.0521 µM | > 100 µM | 0.0429 µM | > 100 µM | 0.0273 µM | > 100 µM | 0.0632 µM | > 100 µM | 0.0722 µM | > 100 µM | 0.0411 µM | > 100 µM | 0.0495 µM | > 100 µM | 0.202 µM | > 100 µM
Cc1cccc2c(N=Nc3ccc(S(N)(=O)=O)cc3)c(O)[nH]c12 | > 25 µM | > 25 µM | > 25 µM | > 25 µM | > 25 µM | > 25 µM | > 25 µM | > 25 µM | > 25 µM | > 25 µM | > 25 µM | > 25 µM | > 25 µM | > 25 µM | > 25 µM | > 25 µM | > 25 µM | > 25 µM | > 25 µM | > 25 µM
CCOC(=O)c1c(C)nc2ccc(Cl)cc2c1-c1ccccc1 | 31.6 µM | > 100 µM | 19.4 µM | 46.9 µM | 1.52 µM | 20.8 µM | 16.6 µM | 61.1 µM | 20.1 µM | > 100 µM | 19.8 µM | 56.8 µM | 17.7 µM | 37.8 µM | 28.7 µM | > 100 µM | 22.2 µM | 80.2 µM | 19.1 µM | 45.6 µM
Nc1ncnc2c1nc(-c1ccccc1)n2C1OC(CO)C(O)C1O (centres undefined) |  | > 100 µM |  | > 100 µM |  | > 100 µM |  | > 100 µM |  | > 100 µM |  | > 100 µM |  | > 100 µM |  | > 100 µM |  | > 100 µM |  | > 100 µM
CCCc1cc2cc(-n3nc(C)c4c3CC(C)(C)CC4=O)cc(NC3CCC(O)CC3)c2c(=O)[nH]1 (centres undefined) | 0.0527 µM | > 100 µM | 0.144 µM | > 100 µM | 0.194 µM | 1.8 µM | 0.134 µM | > 100 µM | 0.0502 µM | > 100 µM | 0.0986 µM | > 100 µM | 0.116 µM | 1.07 µM | 0.0584 µM | > 100 µM | 0.986 µM | > 100 µM | 0.0892 µM | > 46.6 µM
